Earlier results, collected in patent publication US20120070594A1, “HYDROGENATED BISPHENOL-A-BASED POLYMERS AS SUBSTITUTES FOR BISPHENOL-A-BASED POLYMERS” (priority 2010, published 2012).

| Compound | pKa | LD50 (rat) (rat) [mg per kg] |
| --- | --- | --- |
| CC(C)(C1CCC(O)CC1)C1CCC(O)CC1 (stereo not drawn) [HBPA, 4-[2-(4-hydroxycyclohexyl)propan-2-yl]cyclohexan-1-ol] | 17 | 5660 |
| CC(C)(c1ccc(O)cc1)c1ccc(O)cc1 [BPA, 4,4′-(Propane-2,2-diyl)diphenol, reference compound] | 9.6 | – |
